Measurements as given in patent publication US6864286B2, “Inhibitors of the EGF-receptor tyrosine kinase and methods for their use” (Parker Hughes Institute, priority 1998, dated 2005).
Read-outs that look alike come from different tables or passages of the source.

How the values were obtained:
MDA-MB-361 cells = assay: In vitro clonogenic assay, MDA-MB-361; assay type: cell-based, human; conditions: 24 hour treatment; for inhibition at 0.1 µM / inhibition at 10 µM / inhibition at 100 µM: Homo sapiens
Protocol: (§1) In order to determine the cytotoxic activity of LFM and its analogs against breast cancer cells, cells in alpha-MEM supplemented with 10% (v/v) fetal calf serum were treated with various concentrations of the compounds for 24 hours at 37° C., washed twice in alpha-MEM, and then used in either MTT assays or in vitro invasion assays, as described hereinafter.
(§2) After treatment with LFM analogs, cells were resuspended in clonogenic medium consisting of alpha-MEM supplemented with 0.9% methylcellulose, 30% fetal bovine serum, and 50 μM 2-mercaptoethanol. Cells were plated in duplicate Petri dishes at 100,000 cells/mL/dish and cultured in a humidified 5% CO2 incubator for 7 days. Cancer cell colonies were enumerated on a grid using an inverted phase microscope of high optical resolution (Uckun F. M., et al. Clin. Cancer Res. 1998, 4, 901-912; and Kuo). Results were expressed as % inhibition of clonogenic cells at a particular concentration of the test agent using the formula: % Inhibition=(1-Mean # of colonies [Test]/Mean # of colonies [Control])×100. Furthermore, the dose survival curves were constructed using the percent control survival (=Mean # of colonies[Test]/Mean # of colonies [Control]×100) results for each drug concentration as the data points and the IC50 values were calculated. The IC50 values were determined using an Prism Version II Inplot program (Graphpad Software, Inc., San Diego, Calif.).

[1] = test system: MDA-MB-231 human breast cancer cells; assay: Transfilter cell invasion assay (Matrigel-coated Boyden chambers); assay type: cell-based
Protocol: The chamber filters were coated with 50 μg/ml of Matrigel matrix, incubated overnight at room temperature under a laminar flow hood and stored at 4° C.
On the day of the experiment, the coated inserts were rehydrated with 0.5 ml serum-free DMEM containing 0.1% bovine serum albumin for 1-2 hours. To study the effects of LFM and LFM-A12 on invasiveness of MDA-MB-231 cells, exponentially growing cells were incubated with each compound at various concentrations ranging from 12.5 RM to 100 μM in 0.1% DMSO overnight. The cells were trypsinized, washed twice with serum-free DMEM containing BSA, counted and resuspended at 1×10^5 cells/ml.
A 0.5 ml cell suspension containing 5×10^4 cells in a serum-free DMEM containing LFM, LFM-A12, or vehicle was added to the Matrigel-coated and rehydrated filter inserts. Next, 750 μl of NIH fibroblast conditioned medium was placed as a chemoattractant in 24-well plates and the inserts were placed in wells and incubated at 37° C. for 48 hours. […] The invasive cells that migrated to the lower side of the filter were fixed, stained with Hema-3 solutions and counted under microscope. No cells were detected at the bottom of the Boyden chambers. Therefore, the number of cells on the lower side of the filters accounted for all cells that had migrated through the filter. Five (5) to ten (10) random fields per filter were counted to determine the mean (±SE) values for the invasive fraction. The invasive fractions of cells treated with LFM or LFM-A12 were compared to those of vehicle (0.1% DMSO in PBS) treated control cells and the percent inhibition of invasiveness was determined using the following formula: % Inhibition=100×(1-Invasive Fraction of Drug-Treated Cells/Invasive Fraction of Control Cells).

BTK = biological target: T1, BTK (Homo sapiens, UniProt Q06187); assay: Cell-free BTK immune complex kinase assay; assay type: biochemical; conditions: for effect on enzymatic activity of BTK: at concentrations as high as 350 μM
T1 construct: made in house; host or cells: Sf21 insect cells (baculovirus)
Protocol: (§3) Immunoprecipitations, immune-complex protein kinase assays, and immunoblotting using the ECL chemiluminescence detection system (Amersham Life Sciences) were conducted as described previously (Vassilev, A., et al. J. Biol. Chem. 1998, in press; Goodman, P. A., et al. J. Biol. Chem. 1998, 273, 17742; Mahajan, S., et al. Mol. Cell. Biol. 1995, 15, 5304; Uckun, F. M., et al. Science 1996, 22, 1096).

JAK1 = biological target: T2, JAK1 (Homo sapiens, UniProt P23458); assay: Cell-free JAK1 immune complex kinase assay; assay type: biochemical; conditions: for effect on enzymatic activity of JAK1: at concentrations as high as 350 μM
T2 construct: made in house; host or cells: Sf21 insect cells (baculovirus)
Protocol: as §3

MDA-MB-231 cells = assay: In vitro clonogenic assay, MDA-MB-231; assay type: cell-based, human; conditions: 24 hour treatment; for inhibition at 0.1 µM / inhibition at 10 µM / inhibition at 100 µM: Homo sapiens
Protocol: as §1, §2

[2] = MDA-MB-231, migration for 48 hours, mean of two experiments, read-out: IC50 for inhibition of invasion through Matrigel matrix

T1 sequence (Q06187 whole entry, species assumed): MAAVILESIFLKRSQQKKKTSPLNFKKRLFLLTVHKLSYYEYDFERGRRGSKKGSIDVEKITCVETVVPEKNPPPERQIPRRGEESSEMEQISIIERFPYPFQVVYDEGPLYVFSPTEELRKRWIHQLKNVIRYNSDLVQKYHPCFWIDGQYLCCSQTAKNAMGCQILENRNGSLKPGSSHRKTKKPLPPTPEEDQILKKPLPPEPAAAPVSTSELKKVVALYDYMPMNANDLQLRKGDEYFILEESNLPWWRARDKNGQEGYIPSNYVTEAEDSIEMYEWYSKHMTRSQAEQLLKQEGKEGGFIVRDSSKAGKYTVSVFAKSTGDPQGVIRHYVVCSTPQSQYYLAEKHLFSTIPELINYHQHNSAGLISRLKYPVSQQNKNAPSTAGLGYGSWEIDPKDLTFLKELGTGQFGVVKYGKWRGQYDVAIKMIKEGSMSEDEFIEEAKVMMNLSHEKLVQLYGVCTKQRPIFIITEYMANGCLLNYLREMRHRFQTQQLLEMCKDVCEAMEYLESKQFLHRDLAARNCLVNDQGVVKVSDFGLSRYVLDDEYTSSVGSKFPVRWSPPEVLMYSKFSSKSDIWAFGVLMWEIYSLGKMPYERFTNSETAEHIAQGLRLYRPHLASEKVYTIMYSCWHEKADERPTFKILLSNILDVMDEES
T2 sequence (P23458 whole entry, species assumed): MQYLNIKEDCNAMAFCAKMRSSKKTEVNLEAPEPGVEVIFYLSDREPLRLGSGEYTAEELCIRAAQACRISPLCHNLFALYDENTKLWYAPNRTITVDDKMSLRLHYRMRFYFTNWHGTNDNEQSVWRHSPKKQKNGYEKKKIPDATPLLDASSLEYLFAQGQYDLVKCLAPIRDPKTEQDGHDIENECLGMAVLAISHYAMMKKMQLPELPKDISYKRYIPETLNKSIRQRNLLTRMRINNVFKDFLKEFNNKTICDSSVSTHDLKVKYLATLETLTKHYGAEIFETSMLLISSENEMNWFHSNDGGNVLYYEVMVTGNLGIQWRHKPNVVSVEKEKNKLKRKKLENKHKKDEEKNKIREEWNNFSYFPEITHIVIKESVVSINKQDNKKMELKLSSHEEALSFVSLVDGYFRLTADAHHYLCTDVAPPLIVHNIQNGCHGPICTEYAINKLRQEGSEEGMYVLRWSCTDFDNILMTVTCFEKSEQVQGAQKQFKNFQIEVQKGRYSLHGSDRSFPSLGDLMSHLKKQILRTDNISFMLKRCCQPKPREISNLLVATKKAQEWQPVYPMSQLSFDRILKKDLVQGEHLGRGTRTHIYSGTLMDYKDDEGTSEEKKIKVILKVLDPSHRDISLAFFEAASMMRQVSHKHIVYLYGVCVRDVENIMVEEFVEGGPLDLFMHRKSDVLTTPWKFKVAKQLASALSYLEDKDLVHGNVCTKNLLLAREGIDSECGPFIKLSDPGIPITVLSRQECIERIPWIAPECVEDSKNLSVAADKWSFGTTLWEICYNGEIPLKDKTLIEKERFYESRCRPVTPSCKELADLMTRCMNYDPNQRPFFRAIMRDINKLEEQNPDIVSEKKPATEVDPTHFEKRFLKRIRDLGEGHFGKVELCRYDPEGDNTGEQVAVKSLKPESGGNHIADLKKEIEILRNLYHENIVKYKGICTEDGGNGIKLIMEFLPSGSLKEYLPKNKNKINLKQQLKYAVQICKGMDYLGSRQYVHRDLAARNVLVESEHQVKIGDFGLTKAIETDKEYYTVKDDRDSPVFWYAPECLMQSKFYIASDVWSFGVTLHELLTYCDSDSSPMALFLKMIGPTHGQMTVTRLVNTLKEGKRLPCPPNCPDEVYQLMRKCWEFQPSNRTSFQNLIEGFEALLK

| Compound | inhibition at 0.1 µM (MDA-MB-361 cells; MDA-MB-361, 0.1 μM) [%] | inhibition at 10 µM (MDA-MB-361 cells; MDA-MB-361, 10 μM) [%] | inhibition at 100 µM (MDA-MB-361 cells; MDA-MB-361, 100 μM) [%] | Tumor Cell Colonies/10^5 Cells (MDA-MB-361 cells; MDA-MB-361, 0.1 μM) | Tumor Cell Colonies/10^5 Cells (MDA-MB-361 cells; MDA-MB-361, 10 μM) | Tumor Cell Colonies/10^5 Cells (MDA-MB-361 cells; MDA-MB-361, 100 μM) | IC50 [1, 2] [µM] | IC50 ([1]; MDA-MB-231, read-out: IC50 for inhibition of invasion through Matrigel matrix) [µM] | effect on enzymatic activity of BTK (BTK) | effect on enzymatic activity of JAK1 (JAK1) | inhibition at 0.1 µM (MDA-MB-231 cells; MDA-MB-231, 0.1 μM) [%] | inhibition at 10 µM (MDA-MB-231 cells; MDA-MB-231, 10 μM) [%] | inhibition at 100 µM (MDA-MB-231 cells; MDA-MB-231, 100 μM) [%] | Tumor Cell Colonies/10^5 Cells (MDA-MB-231 cells; MDA-MB-231, 0.1 μM) | Tumor Cell Colonies/10^5 Cells (MDA-MB-231 cells; MDA-MB-231, 10 μM) | Tumor Cell Colonies/10^5 Cells (MDA-MB-231 cells; MDA-MB-231, 100 μM) | IC50 (BTK; BTK, cell-free, read-out: Inhibition IC50) [µM] | IC50 (JAK1; JAK1, cell-free, read-out: Inhibition IC50) [µM] | % Inhibition of clonogenic cells (MDA-MB-231 cells; MDA-MB-231, 100 μM, 100 µM) [%] |
| --- | --- | --- | --- | --- | --- | --- | --- | --- | --- | --- | --- | --- | --- | --- | --- | --- | --- | --- | --- |
| CC(O)=C(C#N)C(=O)Nc1ccc(C(F)(F)F)cc1 [LFM, α-Cyano-β-hydroxy-β-methyl-N-[4-(trifluoromethyl)phenyl]-propenamide, reference compound] | 27.3 | 51.5 | 82.3 | 803 | 535 | 196 | 97 | 97 | did not affect the enzymatic activity | did not affect the enzymatic activity | 16.2 | 44.2 | 74.2 | 964 | 642 | 297 | – | – | – |
| C/C(O)=C(\C#N)C(=O)Nc1ccc(OC(F)(F)F)cc1 [LFM-A12, α-Cyano-β-hydroxy-β-methyl-N-[4-(trifluoromethoxy)phenyl]-propenamide] | 32.4 | 60.2 | 87.3 | 746 | 440 | 140 | 28.4 | – | did not affect the enzymatic activity | did not affect the enzymatic activity | 42 | 55.2 | > 99 | 667 | 515 | 0 | > 175 | > 175 | >99 |
